Starred links: 1 amine or outer side, 2 acyl side, 3 side chain; linkers in the order of their positions; H or OH if unused. Positions of bridges follow the written chain, without caps; N, C: chain ends. Non-standard residues stand in square brackets, D forms with d. Residues, ends and D or L forms follow the SMILES beside them. No end group written: not given here. *: point of attachment. DOTA = O=C(O)CN1CCN(CC(=O)O)CCN(CC(=O)*)CCN(CC(=O)O)CC1; Phe(4-NH2) = Nc1ccc(C[C@H](N)C(=O)O)cc1; 1Nal = N[C@@H](Cc1cccc2ccccc12)C(=O)O; Cyclopentanecarbonyl = O=C(C1CCCC1)*; mXylylene = c1cc(C[*:1])cc(C[*:2])c1; X46 = NS(=O)(=O)c1c[nH]c(C(=O)*)c1; X2 = O=C(CN1CCC(N[*:1])CC1)[*:2]; tBuAla = CC(C)(C)C[C@H](N)C(=O)O; Tic = O=C(O)[C@@H]1Cc2ccccc2CN1; X1 = O=C(CN1CCN([*:1])CC1)[*:2]; X58 = CS(=O)(=O)c1ccc(CN*)cc1; Pen = CC(C)(S)[C@H](N)C(=O)O; Propanoyl(3-OH) = O=C(CCO)*; Dap = NC[C@H](N)C(=O)O; AEEA = NCCOCCOCC(=O)O; Sar = CNCC(=O)O

One assay deals with T1, CAIX-expressing human HT-29 colorectal cancer cells (Homo sapiens, UniProt Q16790).
T1 construct: CAIX-expressing human HT-29 colorectal cancer cells; host or cells: HT-29 human colorectal cancer cells
Description: FACS binding assay (IC50 determination, competition with tracer 3BP-2776 or 3BP-4149). Conditions: FACS binding assay, HT-29 cells, competition with tracer 3BP-2776 (10 nM, biotin-labeled), 4° C., 1 hour. Here is the method:
In order to determine binding of compounds according to the present invention to CAIX-expressing cells, a FACS binding assay was established.
CAIX-expressing human HT-29 colorectal cancer cells (DSMZ, RRID: CVCL_0320) were cultured in McCoys's 5A modified medium (Biochrom, #F1015) including 10% fetal calf serum (FCS), 2 mM L-glutamine, 100 U/ml penicillin and 100 μg/mL streptomycin. Cells were detached with Accutase (Biolegend, #423201) and washed in FACS buffer (PBS including 1% FCS). Cells were diluted in FACS buffer to a final concentration of 500.000 cells per ml. 200 μL of the cell suspension were transferred to a u-shaped non-binding 96-well plate (Greiner) and cells were washed in ice-cold FACS buffer.
When biotinylated compounds were used an additional incubation step with 1 μg/mL APC-Streptavidin (Miltenyi; #130-106-791) in 50 μL FACS buffer for 30 minutes on ice was performed.
Cells were washed twice with ice-cold FACS buffer and analyzed in an Attune NxT flow cytometer (Thermo Fisher). Median fluorescence intensities (MFI) of the APC/Cy5-channel were calculated by Attune NxT software. MFI values were plotted against peptide concentration and four parameter logistic (4PL) curve fitting and EC50/pEC50 or IC50/pIC50 calculations were performed using ActivityBase software.
On the technique in general: In flow cytometry, cells or beads pass a laser one at a time.
Turning to “3BP-4178 ([dP]PVYCE[dP]DWLTWSC; linker 5-14 via mXylylene; not fully specified (bridges))”, the “pIC50 category (activity)” value is “A (pIC50 values >8.0)”.

The assay is the same for the next values; noted with them: FACS binding assay, HT-29 cells, competition with tracer 3BP-2776 (10 nM, biotin-labeled), 4° C., 1 hour; read-out: pIC50 category (activity) (converted).
Regarding `CC(C)C[C@@H]1NC(=O)[C@H](Cc2ccc(NC(=O)c3cc(S(N)(=O)=O)c[nH]3)cc2)NC(=O)[C@H](CC(=O)O)NC(=O)[C@H]2CCCN2C(=O)[C@H](CCC(=O)O)NC(=O)[C@@H](NC(=O)[C@H](CCC(N)=O)NC(=O)CN2CCN(C(=O)CN3CCN(CC(=O)O)CCN(CC(=O)O)CCN(CC(=O)O)CC3)CC2)CSCc2cccc(c2)CSC[C@@H](C(N)=O)NC(=O)[C@H](CO)NC(=O)[C@H](Cc2c[nH]c3ccccc23)NC(=O)[C@H]([C@@H](C)O)NC1=O` [3BP-4814] ({DOTA}-[X1]QCE[dP]D[Phe(4-NH2)](X46)LTWSC-NH2; linker 3-12 via mXylylene), the IC50 is 100 to 794 nM. Regarding `CC(C)C[C@@H]1NC(=O)[C@H](Cc2ccc(NC(=O)C3CCCC3)cc2)NC(=O)[C@H](CC(=O)O)NC(=O)[C@H]2CCCN2C(=O)[C@H](CCC(=O)O)NC(=O)[C@@H](NC(=O)[C@H](Cc2ccc(O)cc2)NC(=O)[C@@H](NC(=O)CN2CCC(NC(=O)CN3CCN(CC(=O)O)CCN(CC(=O)O)CCN(CC(=O)O)CC3)CC2)C(C)C)CSCc2cccc(c2)CSC[C@@H](C(N)=O)NC(=O)[C@H](CO)NC(=O)[C@H](Cc2c[nH]c3ccccc23)NC(=O)[C@H]([C@@H](C)O)NC1=O` [3BP-4173] ({DOTA}-[X2]VYCE[dP]D[Phe(4-NH2)](Cyclopentanecarbonyl)LTWSC-NH2; linker 4-13 via mXylylene), the IC50 is 10 to 79.4 nM.

Staying with this assay, now noted: FACS binding assay, HT-29 cells, competition with tracer 3BP-4149 (3 nM, Cy5-labeled), 4° C., 1 hour; read-out: pIC50 category (activity) (converted).
As to `CC(C)C[C@@H]1NC(=O)[C@H](Cc2c[nH]c3ccccc23)NC(=O)[C@H](CC(=O)O)NC(=O)[C@H]2CCCN2C(=O)[C@H](CCC(=O)O)NC(=O)[C@@H]2CSCc3cccc(c3)CSC[C@@H](C(N)=O)NC(=O)[C@H](CNC(=O)C[C@H](NC(=O)COCCOCCNC(=O)CN3CCN(CC(=O)O)CCN(CC(=O)O)CCN(CC(=O)O)CC3)C(=O)N2)NC(=O)[C@H](Cc2c[nH]c3ccccc23)NC(=O)[C@H]([C@@H](C)O)NC1=O` [3BP-4262] ({DOTA-AEEA}-DCE[dP]DWLTW[Dap]C-NH2; lactam 1-10; linker 2-11 via mXylylene), the IC50 is 10 to 79.4 nM. Turning to `CC(C)C[C@@H]1NC(=O)[C@H](Cc2c[nH]c3ccccc23)NC(=O)[C@H](CCC(=O)NCc2ccc(S(C)(=O)=O)cc2)NC(=O)[C@H]2CCCN2C(=O)[C@H](CCC(=O)O)NC(=O)[C@@H](NC(=O)[C@H](Cc2ccc(O)cc2)NC(=O)[C@@H](NC(=O)CN2CCC(NC(=O)CN3CCN(CC(=O)O)CCN(CC(=O)O)CCN(CC(=O)O)CC3)CC2)C(C)C)CSCc2cccc(c2)CSC[C@@H](C(N)=O)NC(=O)[C@H](CO)NC(=O)[C@H](Cc2c[nH]c3ccccc23)NC(=O)[C@H]([C@@H](C)O)NC1=O` [3BP-4333] ({DOTA}-[X2]VYCE[dP]E(X58)WLTWSC-NH2; linker 4-13 via mXylylene), the IC50 is 10 to 79.4 nM.

The assay is the same for the next values; noted with them: FACS competition on HT-29 cells, Tracer ID 3BP-2776 (10 nM, biotin-labeled), 4° C., 1 hour; read-out: pIC50 category (activity) (converted).
Regarding `CC(=O)N[C@H](C(=O)N1Cc2ccccc2C[C@H]1C(=O)N[C@H]1CSCc2cccc(c2)CSC[C@@H](C(N)=O)NC(=O)[C@H](CO)NC(=O)[C@H](Cc2c[nH]c3ccccc23)NC(=O)[C@H]([C@@H](C)O)NC(=O)[C@H](CC(C)C)NC(=O)[C@H](Cc2c[nH]c3ccccc23)NC(=O)[C@H](CC(=O)O)NC(=O)[C@H]2CCCN2C(=O)[C@H](CCC(=O)O)NC1=O)C(C)C` [3BP-3572] (Ac-V[Tic]CE[dP]DWLTWSC-NH2; linker 3-12 via mXylylene), the IC50 is 10 to 79.4 nM. On the same count and under the same terms, next, `CC(=O)N[C@H](C(=O)N[C@@H](Cc1ccc(O)cc1)C(=O)N[C@H]1CSCc2cccc(c2)CSC[C@@H](C(N)=O)NC(=O)[C@H](CCC(N)=O)NC(=O)[C@H](Cc2c[nH]c3ccccc23)NC(=O)[C@H]([C@@H](C)O)NC(=O)[C@H](CC(C)C)NC(=O)[C@H](Cc2c[nH]c3ccccc23)NC(=O)[C@H](CC(=O)O)NC(=O)CNC(=O)[C@@H](CCC(=O)O)NC1=O)C(C)C` [3BP-3045] (Ac-VYC[dE]GDWLTWQC-NH2; linker 3-12 via mXylylene): 100 to 794 nM. Still for that read-out and setting: next, `CC(=O)N[C@H](C(=O)N[C@@H](Cc1ccc(O)cc1)C(=O)N[C@H]1CSCc2cccc(c2)CSC[C@@H](C(N)=O)NC(=O)[C@H](CO)NC(=O)[C@H](Cc2c[nH]c3ccccc23)NC(=O)[C@@H]2CCCCNC(=O)CC[C@H](NC(=O)[C@H]3CCCN3C(=O)[C@H](CCC(=O)O)NC1=O)C(=O)N[C@@H](Cc1c[nH]c3ccccc13)C(=O)N[C@@H](CC(C)C)C(=O)N2)C(C)C` [3BP-3901] (Ac-VYCE[dP]EWLKWSC-NH2; linker 3-12 via mXylylene; lactam 6-9): 10 to 79.4 nM; `CC(=O)N[C@@H](CO)C(=O)N[C@@H](Cc1ccc(O)cc1)C(=O)N[C@H]1CSCc2cccc(c2)CSC[C@@H](C(N)=O)NC(=O)[C@H](CO)NC(=O)[C@H](Cc2c[nH]c3ccccc23)NC(=O)[C@H]([C@@H](C)O)NC(=O)[C@H](CC(C)C)NC(=O)[C@H](Cc2c[nH]c3ccccc23)NC(=O)[C@H](CC(=O)O)NC(=O)[C@H]2CCCN2C(=O)[C@H](CCC(=O)O)NC1=O` [3BP-3566] (Ac-SYCE[dP]DWLTWSC-NH2; linker 3-12 via mXylylene): less than 10 nM; `CC(=O)N[C@H](C(=O)N[C@@H](Cc1ccc(O)cc1)C(=O)N[C@H]1CSCc2cccc(c2)CSC[C@@H](C(N)=O)NC(=O)[C@H](CO)NC(=O)[C@H](Cc2c[nH]c3ccccc23)NC(=O)[C@@H]2CCC(=O)NCCCC[C@H](NC1=O)C(=O)N1CCC[C@@H]1C(=O)N[C@@H](CC(=O)O)C(=O)N[C@@H](Cc1c[nH]c3ccccc13)C(=O)N[C@@H](CC(C)C)C(=O)N2)C(C)C` [3BP-3888] (Ac-VYCK[dP]DWLEWSC-NH2; linker 3-12 via mXylylene; lactam 4-9): 10 to 79.4 nM. As for `CC(=O)N[C@H](C(=O)N[C@@H](Cc1ccc(O)cc1)C(=O)N[C@H]1CSCc2cccc(c2)CSC(C)(C)[C@@H](C(N)=O)NC(=O)[C@H](C)NC(=O)[C@H](Cc2c[nH]c3ccccc23)NC(=O)[C@H]([C@@H](C)O)NC(=O)[C@H](CC(C)(C)C)NC(=O)[C@H](Cc2c[nH]c3ccccc23)NC(=O)[C@H](CC(=O)O)NC(=O)CN(C)C(=O)[C@H](CCC(=O)O)NC1=O)C(C)C` [3BP-3501] (Ac-VYCE[Sar]DW[tBuAla]TWA[Pen]-NH2; linker 3-12 via mXylylene), the IC50 was less than 10 nM. Same read-out and setting: next, `CC(C)C[C@@H]1NC(=O)[C@H](Cc2c[nH]c3ccccc23)NC(=O)[C@H](CC(=O)O)NC(=O)[C@H]2CCCN2C(=O)[C@H](CCC(=O)O)NC(=O)[C@@H](NC(=O)[C@H](Cc2ccc(O)cc2)NC(=O)CCO)CSCc2cccc(c2)CSC[C@@H](C(N)=O)NC(=O)[C@H](CO)NC(=O)[C@H](Cc2c[nH]c3ccccc23)NC(=O)[C@H]([C@@H](C)O)NC1=O` [3BP-3730] ({Propanoyl(3-OH)}-YCE[dP]DWLTWSC-NH2; linker 2-11 via mXylylene): less than 10 nM; `CC(=O)N[C@H](C(=O)N[C@@H](Cc1ccc(O)cc1)C(=O)N[C@H]1CSCc2cccc(c2)CSC[C@@H](C(N)=O)NC(=O)[C@H](CCC(N)=O)NC(=O)[C@H](Cc2c[nH]c3ccccc23)NC(=O)[C@H]([C@@H](C)O)NC(=O)[C@H](CC(C)C)NC(=O)[C@H](Cc2cccc3ccccc23)NC(=O)[C@H](CC(=O)O)NC(=O)CN(C)C(=O)[C@H](CCC(=O)O)NC1=O)C(C)C` [3BP-3314] (Ac-VYCE[Sar]D[1Nal]LTWQC-NH2; linker 3-12 via mXylylene): less than 10 nM.

The values above are taken from patent US20250339569A1, “CARBONIC ANHYDRASE IX LIGANDS” (priority 2021, published 2025).
